The source of these data is patent publication US7476692B2, “Pharmaceutical compositions of safingol and methods of using the same” (priority 2003, dated 2009).

Each structure is given as a SMILES string. Converted amounts (≈) assume the structure as drawn. Some results are limits rather than exact numbers.

One series deals with Fisher rats. As to conditions: Group III: 4-HPR 61 mg/kg/d D1-5 continuous iv, safingol 0; 3 male rats.
Series [1] is described as follows: Solubility/miscibility studies of safingol in solvent systems.
Procedure: (§1) The following solubility/miscibility studies were performed with safingol at various concentrations.
The test system of a further series is sphingosine kinase. As to conditions: variously reported in the literature; cited from earlier work.
The test system of a further series is protein kinase C (PKC). As to conditions: variously reported; acting at the regulatory subunit of PKCs; cited from earlier work.

Procedure for physchem: as §1

Regarding `CC1=C(/C=C/C(C)=C/C=C/C(C)=C/C(=O)Nc2ccc(O)cc2)C(C)(C)CCC1` [4-HPR, fenretinide], in the series with Fisher rats, the “Toxicity: din path” value was “din path: normal”, the “Toxicity: dinical signs” value is “dinical signs: normal”, the “Toxicity: necropsy: discoloration(lung)” value is listed as 3/3 and the “Toxicity: necropsy: emaciation” value was 1/3.
The solubility is how much of the substance goes into solution per volume. Consider `CCCCCCCCCCCCCCC[C@H](O)[C@@H](N)CO` [Safingol, (2S,3S)-2-amino-1,3-octadecanediol], for which the “Precipitate at 2° C. to 8° C.” value in series [1] (50:50 Ethanol:WFI with lactic acid) is listed as “precipitate formation”; in series [1] (Lactic acid in 2% EPL in WFI) it was “no precipitate”; in series [1] (Lactic acid/Ethanol) it was “precipitate formation”; in series [1] (Lactic acid/WFI), “precipitate formation”; in series [1] (Propionic acid/WFI) it was “precipitate formation”. Further, the “Solubility (Result)” value is given as “not soluble” in series [1] (Castor oil); “not soluble” in series [1] (Citric acid/WFI); “not soluble” in series [1] (DMSO); “not soluble” in series [1] (HC1/WFI); “not soluble” in series [1] (HCl/Ethanol); “solubility similar to lactic without EPL” in series [1] (Lactic acid in 2% EPL in WFI). For the same compound, the “Solubility (Result)” value is recorded as “not soluble” in series [1] (Maleic acid/WFI); “not soluble” in series [1] (Malic acid/WFI); “not soluble” in series [1] (Methanesulfonic acid/Ethanol); “not soluble, but the appearance of the safingol changed,” in series [1] (Methanesulfonic acid/WFI); “Not soluble” in series [1] (Neobee oil); “not soluble” in series [1] (Pluronic F-68/WFI). In addition, the “Solubility (Result)” value in series [1] (Safflower oil, attempted: 0.5 mg/mL) is given as “Not soluble (attempted: 0.5 mg/mL)”; in series [1] (Sesame oil, attempted: 0.5 mg/mL), “Not soluble (attempted: 0.5 mg/mL)”; in series [1] (Sodium Lactate/WFI), “not soluble”; in series [1] (Soybean oil) it was “Not soluble”; in series [1] (Tartaric acid/WFI), “not soluble”; in series [1] (Tricaprylin, attempted: 0.5 mg/mL), “Not soluble (attempted: 0.5 mg/mL)”. For the same compound, the “Solubility (Result)” value in series [1] (Tween-80) is reported as “not soluble”; in series [1] (Valium solvent, attempted: 0.5 mg/mL), “Not soluble (attempted: 0.5 mg/mL)”; in series [1] (Vitamin E (α-tocopherol)) it was “not soluble”. Besides, the “Temperature at which later found to be soluble” value in series [1] (Neobee oil) and in series [1] (Soybean oil) was around 80 °C in each case. Besides, in series [1] (ethanol-containing safingol/lactic acid solutions chilled to 2-8° C., then warmed to room temperature), the “Precipitates on chilling, versus non-ethanol-containing solutions” value was “reduced in quantity and dissolved much more readily”. For the same compound, the “Effect of ethanol on solubility of safingol” value in series [1] (lactic acid/water solutions) was “substantially increased”. The solubility is around 50000 µg/mL (≈ 166 mM) in “physchem” (50:50 ethanol:WFI with lactic acid, aqueous with cosolvent or surfactant or cyclodextrin); 15700 µg/mL (≈ 52 mM) in “physchem” (60:40 t-BuOH/WFI, aqueous with cosolvent or surfactant or cyclodextrin); 6600 to 7400 µg/mL (≈ 21.9 to 24.5 mM) in the series “physchem” (DMAC, organic solvent or mixture); 7220 µg/mL (≈ 23.9 mM) in the series “physchem” (Diluent 12, organic solvent or mixture); 1010 to 1060 µg/mL (≈ 3.35 to 3.52 mM) in “physchem” (PEG 300, organic solvent or mixture); 7500 to 8200 µg/mL (≈ 24.9 to 27.2 mM) in “physchem” (ethanol, organic solvent or mixture). In addition, the solubility in “physchem” (lactic acid in WFI with 5 mg/mL mannitol, aqueous buffer) is 10000 µg/mL (≈ 33.2 mM); in the series “physchem” (lactic acid/WFI, aqueous buffer) it was above 10000 µg/mL; in the series “physchem” (lactic acid/ethanol, organic solvent or mixture), around 20000 µg/mL (≈ 66.3 mM); in “physchem” (propionic acid/WFI, aqueous buffer), at least 5000 µg/mL; in “physchem” (propylene glycol, organic solvent or mixture), 1060 to 1350 µg/mL (≈ 3.52 to 4.48 mM); in “physchem” (t-butanol, organic solvent or mixture) it was above 25000 µg/mL. Besides, the “Inhibition of sphingosine kinase” value in the series with sphingosine kinase is “inhibitor”. Moreover, in the series with protein kinase C (PKC), the “Inhibition of protein kinase C (PKC), including PKCζ” value is listed as “inhibitor”.
